Literature values in patent US20060292214A1, “Nanoparticulate acetaminophen formulations” (Elan Pharma International Limited, priority 2005, published 2006).

For `CC(=O)Nc1ccc(O)cc1` [acetaminophen, 4′-hydroxyacetanilide], the solubility in water is given as “practically insoluble in water”.
